Laboratory results as given in the supplement of paper PMC10307832.

Columns and labels:
Test in all cases: relative viability (nuclei count vs DMSO), 5 days (fraction); higher = more cells survive
Axitinib + Alpelisib = compound: CNC(=O)c1ccccc1Sc1ccc2c(/C=C/c3ccccn3)n[nH]c2c1 [Axitinib] + Cc1nc(NC(=O)N2CCC[C@H]2C(N)=O)sc1-c1ccnc(C(C)(C)C(F)(F)F)c1 [Alpelisib] (partner 2 µM)
Method in brief: (§1)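 Five library-drug doses in √10 steps were combined with a fixed anchor-drug dose, or a single drug was given alone, by pin tool to lung cancer cell lines in 1536-well plates the day after seeding. Nuclei were stained and counted after 5 days. Relative viability is the nuclei count in treated wells over that in vehicle wells, taken as the median of duplicate plates.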

Axitinib + Decitabine = compound: CNC(=O)c1ccccc1Sc1ccc2c(/C=C/c3ccccn3)n[nH]c2c1 [Axitinib] + Nc1ncn([C@H]2C[C@H](O)[C@@H](CO)O2)c(=O)n1 [Decitabine] (partner 2 µM)
Method in brief: as §1

Bemcentinib + Vorinostat = compound: Nc1nc(Nc2ccc3c(c2)CC[C@@H](N2CCCC2)CC3)nn1-c1cc2c(nn1)-c1ccccc1CCC2 [Bemcentinib] + O=C(CCCCCCC(=O)Nc1ccccc1)NO [Vorinostat] (partner 1 µM)
Method in brief: as §1

[1] = compound: Nc1nc(Nc2ccc3c(c2)CC[C@@H](N2CCCC2)CC3)nn1-c1cc2c(nn1)-c1ccccc1CCC2 [Bemcentinib] + CC(=O)c1c(C)c2cnc(Nc3ccc(N4CCNCC4)cn3)nc2n(C2CCCC2)c1=O [Palbociclib] (partner 0.5 µM)
Method in brief: as §1

Row | Cell Line | relative viability (Axitinib + Alpelisib; first compound 0.005 µM) | relative viability (Axitinib + Alpelisib; first compound 0.01581 µM) | relative viability (Axitinib + Alpelisib; first compound 0.05 µM) | relative viability (Axitinib + Alpelisib; first compound 0.1581 µM) | relative viability (Axitinib + Alpelisib; first compound 0.5 µM) | relative viability (Axitinib + Decitabine; first compound 0.005 µM) | relative viability (Axitinib + Decitabine; first compound 0.01581 µM) | relative viability (Axitinib + Decitabine; first compound 0.05 µM) | relative viability (Axitinib + Decitabine; first compound 0.1581 µM) | relative viability (Axitinib + Decitabine; first compound 0.5 µM) | relative viability (Bemcentinib + Vorinostat; first compound 0.04 µM) | relative viability (Bemcentinib + Vorinostat; first compound 0.1265 µM) | relative viability (Bemcentinib + Vorinostat; first compound 0.4 µM) | relative viability (Bemcentinib + Vorinostat; first compound 1.265 µM) | relative viability (Bemcentinib + Vorinostat; first compound 4 µM) | relative viability ([1]; first compound 0.04 µM) | relative viability ([1]; first compound 0.1265 µM) | relative viability ([1]; first compound 0.4 µM) | relative viability ([1]; first compound 1.265 µM) | relative viability ([1]; first compound 4 µM)
1 | NCI-H1299 | 0.987 | 1.01 | 1.06 | 1.06 | 1.1 |  |  |  |  |  |  |  |  |  |  |  |  |  |  | 
2 | NCI-H1734 | 0.547 | 0.691 | 0.702 | 0.626 | 0.707 | 0.518 | 0.492 | 0.524 | 0.491 | 0.521 | 0.788 | 0.773 | 0.853 | 0.833 | 0.828 | 0.345 | 0.32 | 0.349 | 0.345 | 0.345
3 | NCI-H1793 | 0.667 | 0.701 | 0.722 | 0.73 | 0.676 | 0.595 | 0.55 | 0.478 | 0.413 | 0.559 | 0.63 | 1.15 | 0.74 | 0.461 | 0.699 | 0.331 | 0.369 | 0.306 | 0.26 | 0.322
4 | NCI-H522 |  |  |  |  |  | 0.639 | 0.725 | 0.625 | 0.63 | 0.624 | 0.87 | 0.959 | 0.859 | 0.799 | 0.907 | 0.834 | 1.04 | 1.07 | 1.1 | 0.915
5 | LU99A | 0.492 | 0.498 | 0.533 | 0.515 | 0.522 | 0.719 | 0.987 | 0.761 | 0.905 | 0.857 | 0.472 | 0.482 | 0.468 | 0.477 | 0.436 | 0.367 | 0.37 | 0.422 | 0.401 | 0.413
6 | NCI-H1437 | 1.01 | 1.01 | 1.01 | 0.929 | 1.06 | 0.608 | 0.594 | 0.555 | 0.59 | 0.561 | 0.857 | 0.914 | 0.97 | 0.955 | 0.889 | 0.322 | 0.373 | 0.298 | 0.226 | 0.324
7 | NCI-H1703 | 0.264 | 0.214 | 0.186 | 0.171 | 0.243 |  |  |  |  |  |  |  |  |  |  |  |  |  |  | 
8 | NCI-H1648 |  |  |  |  |  | 0.537 | 0.574 | 0.568 | 0.519 | 0.478 | 0.598 | 0.362 | 0.385 | 0.386 | 0.457 | 0.255 | 0.236 | 0.276 | 0.297 | 0.291
9 | ChaGo-K-1 |  |  |  |  |  | 0.557 | 0.527 | 0.506 | 0.52 | 0.495 | 0.686 | 0.832 | 0.823 | 0.749 | 0.755 | 0.963 | 0.953 | 1.02 | 0.954 | 0.938
10 | Calu-6 | 0.847 | 0.997 | 1.02 | 1.01 | 1.18 |  |  |  |  |  |  |  |  |  |  |  |  |  |  | 
11 | EBC-1 | 0.904 | 0.863 | 0.806 | 0.738 | 1.07 |  |  |  |  |  |  |  |  |  |  |  |  |  |  | 
12 | CAL-12T | 1.35 | 1.38 | 1.01 | 1.26 | 1.32 |  |  |  |  |  | 0.907 | 1 | 0.824 | 0.762 | 0.831 | 0.3 | 0.59 | 0.47 | 0.489 | 0.45
13 | NCI-H1650 |  |  |  |  |  | 0.441 | 0.31 | 0.434 | 0.381 | 0.406 | 0.515 | 0.713 | 0.753 | 0.576 | 0.553 | 0.324 | 0.366 | 0.307 | 0.354 | 0.373
14 | NCI-H2228 | 0.884 | 0.699 | 0.798 | 0.677 | 0.964 |  |  |  |  |  | 0.574 | 0.878 | 0.763 | 0.749 | 0.756 | 0.268 | 0.827 | 0.844 | 0.836 | 0.997
15 | IA-LM | 0.79 | 0.883 | 0.733 | 0.761 | 0.619 |  |  |  |  |  | 0.968 | 1.38 | 0.984 | 0.965 | 0.866 |  |  |  |  | 
16 | NCI-H2342 |  |  |  |  |  | 0.717 | 0.68 | 0.769 | 0.658 | 0.794 | 0.833 | 0.807 | 0.746 | 0.678 | 0.808 | 0.605 | 0.614 | 0.562 | 0.575 | 0.529
17 | SW 900 |  |  |  |  |  | 0.428 |  | 0.477 | 0.4 | 0.602 | 0.461 | 0.924 | 0.602 | 0.303 | 0.501 | 0.58 | 0.594 | 0.518 | 0.538 | 0.591
18 | A549 | 0.79 | 0.741 | 0.775 | 0.753 | 0.874 | 0.324 | 0.296 | 0.338 | 0.243 | 0.324 |  |  |  |  |  |  |  |  |  | 
19 | NCI-H1792 | 0.797 | 0.715 | 0.671 | 0.699 | 0.683 | 0.527 | 0.508 | 0.429 | 0.533 | 0.575 |  |  |  |  |  | 0.711 | 0.714 | 0.675 | 0.721 | 0.664
